# Laboratory results published in US6465479B1, “Pyridomorphinans and use thereof” (Southern Research Institute, priority 1999, dated 2002).
# Values joined by “and” are separate entries in the source; they are usually repeats but may differ in a detail not shown here. Equal entries are not always repeated. “Also recorded” adds a separate entry of the source. Where two headings read alike, the source gives them in different places.
# How the values were obtained:
# μ receptors = biological target: T1, μ receptors (Rattus norvegicus, UniProt P33535); assay: μ opioid receptor binding, displacement of [3H]DAMGO in rat brain membranes; settings: displacement of [3H]DAMGO (1.4-3.0 nM), read-out: K1 (nM) ± SEM μ
# T1 construct: from tissue; host or cells: rat brain membranes
# mouse vas deferens (MVD) [1] = assay: Opioid agonist activity in electrically stimulated mouse vas deferens (MVD); format: cell-based; settings: percentage inhibition of contraction at 1 μM
# Experimental: The opioid agonist and antagonist potencies were determined on the electrically stimulated mouse vas deferens (MVD) and guinea pig ileum (GPI) smooth muscle preparations.
# guinea pig ileum (GPI) = assay: Opioid agonist activity in electrically stimulated guinea pig ileum (GPI); format: cell-based
# male ICR mice [2] = assay: 55° C. warm-water tail-flick test, antinociception; format: in vivo, mouse; settings: for agonist character in tail-flick, i.c.v.: icv injection
# Experimental: (§1) In the following examples, male ICR mice(20-30 grams) were used. […] The solution was brought up to approximately pH 5.5 with 1.74 M NaOH and then the final volume adjusted with distilled water. […] Additional compounds used in these studies were dissolved in distilled water (i.c.v. injections) or physiological saline (i.p. injections).
# (§2) Antinociception was assessed using either the 55° C. warm-water tail-flick test or the acetic-acid writhing assay. […] Each mouse was first tested for baseline latency by immersing its tail in the water and recording the time to response. Mice not responding within 5 sec were excluded from further testing. Mice were then administered the test compound and tested for antinociception at 10, 20, 30, 45, 60 and 90 min post-injection. A maximum score was assigned (100%) to animals not responding within 15 sec to avoid tissue damage. Antinociception was calculated by the following formula: % antinociception=100×(test latency-control latency)/(15-control latency). For the acetic acid writhing test, mice were injected i.p. with 0.9% acetic acid. They were then placed in a clear Plexiglas observation jar and the number of abdominal writhes recorded for 15 min (Mogil et al., Heritability of nociception I: responses of 11 inbred mouse strains on 12 measures of nociception. Pain 80:67-82,1999). Percent antinociception was calculated using the formula: % MPE (maximum possible effect)=100−((#writhes individual mouse/mean # writhes control group)×100).
# male ICR mice [3] = assay: Acetic acid writhing assay, antinociception, tolerance and antagonist pretreatment; format: in vivo, mouse; settings: for Repeated Injections A50 (95% C.I.) i.c.v. / Repeated Injections A50 (95% C.I.) i.p. / Control A50 (95% C.I.) i.p. / Control A50 (95% C.I.) i.c.v.: acetic acid writhing; for Repeated Injections A50 (95% C.I.) i.c.v. / Repeated Injections A50 (95% C.I.) i.p.: after A90 dose ×2 daily, 3 days; for Control A50 (95% C.I.) i.p. / Control A50 (95% C.I.) i.c.v.: control mice
# Experimental: as §1, §2
# Control mice received a vehicle injection (5 μl distilled water, i.c.v., −24 hr).
# [4] = biological target: T2, delta-2 ([D-Ala2, Glu4]deltorphin) (Mus musculus, UniProt P32300); assay: Antagonism of delta-2 agonist [D-Ala2, Glu4]deltorphin antinociception in the 55° C. tail-flick test; format: in vivo
# T2 construct: male ICR mice(20-30 grams) were used; from tissue; host or cells: whole animal (male ICR mice), tail-flick test
# Experimental: as §2
# (§3) Mice were then injected with A90 doses of selective mu, delta or kappa agonists and antinociception was assessed in the 55° C. tail-flick test.
# delta-1 (DPDPE) = biological target: T3, delta-1 (DPDPE) (Mus musculus, UniProt P32300); assay: Antagonism of delta-1 agonist DPDPE antinociception in the 55° C. tail-flick test; format: in vivo
# T3 construct: male ICR mice(20-30 grams) were used; from tissue; host or cells: whole animal (male ICR mice), tail-flick test
# Experimental: as §2, §3
# mu (DAMGO) = biological target: T4, mu (DAMGO) (Mus musculus, UniProt P42866); assay: Antagonism of mu agonist DAMGO antinociception in the 55° C. tail-flick test; format: in vivo
# T4 construct: male ICR mice(20-30 grams) were used; from tissue; host or cells: whole animal (male ICR mice), tail-flick test
# Experimental: as §2, §3
# kappa (U69,593) = biological target: T5, kappa (U69,593) (Mus musculus, UniProt P33534); assay: Antagonism of kappa agonist U69,593 antinociception in the 55° C. tail-flick test; format: in vivo
# T5 construct: male ICR mice(20-30 grams) were used; from tissue; host or cells: whole animal (male ICR mice), tail-flick test
# Experimental: as §2, §3
# δ receptors = δ receptors (Rattus norvegicus, UniProt P33533); settings: read-out: K1 (nM) ± SEM δ; displacement of [3H]DADLE (1.3-2.0 nM), rat brain membranes, 100 nM DAMGO to block μ sites
# κ receptors = κ receptors (Cavia porcellus, UniProt P41144); settings: read-out: K1 (nM) ± SEM K1 (κ); displacement of [3H]U69,593 (1.2-[…]), guinea pig brain membranes
# mice = assay: Overt signs of toxicity in mice during the antinociceptive studies; settings: dose ranges tested
# morphine pretreated mice = assay: Acute morphine physical dependence, precipitated withdrawal (vertical jumps)
# [5] = biological target: T6, δ opioid receptor (DPDPE) in the MVD preparation (Mus musculus, UniProt P32300); settings: data from published sources; cited from earlier work
# T6 construct: electrically stimulated mouse vas deferens (MVD) and guinea pig ileum (GPI) smooth muscle preparations; from tissue; host or cells: mouse vas deferens
# mouse vas deferens (MVD) [6] = settings: percentage inhibition of contraction at 1 μM; data from published sources; cited from earlier work
# [7] = system: μ opioid receptor (PL-017) in the GPI preparation; settings: data from published sources; cited from earlier work
# T5 sequence (P33534 whole entry): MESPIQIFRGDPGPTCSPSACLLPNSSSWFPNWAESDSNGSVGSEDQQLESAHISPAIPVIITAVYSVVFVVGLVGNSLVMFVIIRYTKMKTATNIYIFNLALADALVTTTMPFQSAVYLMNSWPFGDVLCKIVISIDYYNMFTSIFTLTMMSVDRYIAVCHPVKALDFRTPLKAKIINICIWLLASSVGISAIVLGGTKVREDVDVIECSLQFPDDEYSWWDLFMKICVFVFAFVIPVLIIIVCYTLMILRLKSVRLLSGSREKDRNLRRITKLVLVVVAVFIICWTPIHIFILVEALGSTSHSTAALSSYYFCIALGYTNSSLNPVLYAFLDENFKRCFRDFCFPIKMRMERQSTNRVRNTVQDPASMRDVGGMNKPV
# δ receptors, sequence (P33533 whole entry): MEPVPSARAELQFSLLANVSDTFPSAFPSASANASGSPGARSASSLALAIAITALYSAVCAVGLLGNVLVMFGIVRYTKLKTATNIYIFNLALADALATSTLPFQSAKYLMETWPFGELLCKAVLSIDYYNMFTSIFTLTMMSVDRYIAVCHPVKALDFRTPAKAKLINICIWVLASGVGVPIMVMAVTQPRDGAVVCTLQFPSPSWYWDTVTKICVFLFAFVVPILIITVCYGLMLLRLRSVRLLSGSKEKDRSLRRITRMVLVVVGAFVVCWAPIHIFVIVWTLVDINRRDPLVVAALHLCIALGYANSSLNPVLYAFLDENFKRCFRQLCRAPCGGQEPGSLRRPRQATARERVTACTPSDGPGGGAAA
# T3 sequence (P32300 whole entry): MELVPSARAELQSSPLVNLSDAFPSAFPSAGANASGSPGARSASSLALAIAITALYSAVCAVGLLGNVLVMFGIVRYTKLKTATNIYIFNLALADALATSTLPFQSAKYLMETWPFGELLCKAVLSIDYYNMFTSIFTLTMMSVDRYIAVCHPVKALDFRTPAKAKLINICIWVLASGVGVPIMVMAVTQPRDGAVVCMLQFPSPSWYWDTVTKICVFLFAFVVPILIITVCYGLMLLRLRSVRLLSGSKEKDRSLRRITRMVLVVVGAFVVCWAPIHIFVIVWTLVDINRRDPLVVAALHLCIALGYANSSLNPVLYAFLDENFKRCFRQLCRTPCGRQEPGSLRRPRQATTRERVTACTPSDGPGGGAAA
# T2 sequence (P32300 whole entry): as above
# κ receptors, sequence (P41144 whole entry): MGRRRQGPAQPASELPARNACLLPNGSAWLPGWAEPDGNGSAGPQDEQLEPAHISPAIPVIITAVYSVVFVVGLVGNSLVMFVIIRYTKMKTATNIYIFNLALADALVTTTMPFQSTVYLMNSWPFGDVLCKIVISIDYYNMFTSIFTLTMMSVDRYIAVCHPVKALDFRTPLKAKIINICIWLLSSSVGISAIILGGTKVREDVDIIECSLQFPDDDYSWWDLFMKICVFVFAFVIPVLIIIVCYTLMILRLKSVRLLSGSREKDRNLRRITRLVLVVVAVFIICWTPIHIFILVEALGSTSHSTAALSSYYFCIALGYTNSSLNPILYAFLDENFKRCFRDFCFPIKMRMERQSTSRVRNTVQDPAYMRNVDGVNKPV
# T4 sequence (P42866 whole entry): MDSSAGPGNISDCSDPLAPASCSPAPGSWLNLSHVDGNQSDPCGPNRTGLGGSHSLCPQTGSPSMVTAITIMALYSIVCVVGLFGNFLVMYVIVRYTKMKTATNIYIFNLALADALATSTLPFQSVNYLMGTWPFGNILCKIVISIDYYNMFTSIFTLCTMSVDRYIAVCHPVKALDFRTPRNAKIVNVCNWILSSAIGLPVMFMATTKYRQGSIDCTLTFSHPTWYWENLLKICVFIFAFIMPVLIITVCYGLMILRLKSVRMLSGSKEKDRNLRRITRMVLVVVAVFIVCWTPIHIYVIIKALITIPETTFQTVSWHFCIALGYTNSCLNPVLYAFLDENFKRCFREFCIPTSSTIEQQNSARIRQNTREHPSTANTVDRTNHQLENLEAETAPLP
# T1 sequence (P33535 whole entry): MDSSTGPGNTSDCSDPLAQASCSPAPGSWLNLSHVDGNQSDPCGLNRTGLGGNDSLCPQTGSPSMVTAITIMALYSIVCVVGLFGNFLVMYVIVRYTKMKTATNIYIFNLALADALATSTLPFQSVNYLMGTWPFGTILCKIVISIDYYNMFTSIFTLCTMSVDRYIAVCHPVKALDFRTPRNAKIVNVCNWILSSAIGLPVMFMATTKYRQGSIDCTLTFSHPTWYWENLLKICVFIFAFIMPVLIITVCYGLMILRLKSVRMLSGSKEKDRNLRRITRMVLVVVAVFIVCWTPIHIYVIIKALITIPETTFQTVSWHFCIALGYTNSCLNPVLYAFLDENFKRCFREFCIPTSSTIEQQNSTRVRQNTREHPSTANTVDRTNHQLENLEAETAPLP
# T6 sequence (P32300 whole entry): as the sequence (P32300 whole entry) above
structure (smiles),measurement,setting,value
"Oc1ccc2c3c1O[C@H]1c4ncc(-c5ccc(Cl)cc5)cc4C[C@@]4(O)[C@@H](C2)N(CC2CC2)CC[C@]314 [Compound 6d, 5′-(4-Chlorophenyl)-17-(Cyclopropylmethyl)-6,7-didehydro-3,14-dihydroxy-4,5α-epoxypyrido[2′3′:6,7]morphinan]",Ki,μ receptors,51 ± 8 nM
same,agonist activity MVD % max resp,mouse vas deferens (MVD) [1],21%
same,agonist character in the GPI,guinea pig ileum (GPI),full agonist
same,IC50,"guinea pig ileum (GPI); Cavia porcellus, agonist",163 nM
same,% MPE tail flick,"male ICR mice [2]; 100 nmol i.c.v., mice",40.3 % MPE
same,A50 tail-flick i.c.v.,"male ICR mice [2]; 55° C. tail-flick, mice",greater than 100 nmol
same,"agonist character in tail-flick, i.c.v.",male ICR mice [2]; 55° C. tail-flick,only partial agonist effects
same,"antinociceptive effect in tail flick, i.p.","male ICR mice [2]; i.p., doses up to 60 mg/kg",no measurable antinociceptive effect
same,number of writhes,"male ICR mice [3]; 30 nmol i.c.v. (A90), vs vehicle, p<0.001",significantly decreased the number of writhes
same,Repeated Injections A50 (95% C.I.) i.c.v.,male ICR mice [3],10.9 nmol (7.2-16.5
same,Repeated Injections A50 (95% C.I.) i.p.,male ICR mice [3],3.85 mg/kg (0.9-16.0
same,Control A50 (95% C.I.) i.p.,male ICR mice [3],4.6 mg/kg (2.5-8.6
same,"agonist character in acetic acid writhing, i.c.v.",male ICR mice [3]; icv injection,full agonist activity
same,blockade of antinociception by delta or kappa antagonist pretreatment,"male ICR mice [3]; naltrindole 20 mg/kg i.p. -20 min (p>0.99) or nor-BNI 1 nmol i.c.v. -24 hr (p>0.13), 6d 30 nmol i.c.v.",not by naltrindole (p>0.99) or nor-BNI
same,blockade of antinociception by mu antagonist pretreatment,"male ICR mice [3]; β-FNA 19 nmol i.c.v. -24 hr, 6d 30 nmol i.c.v., p<0.002",blocked by pre-treatment with β-FNA
same,"antagonism of delta-2 agonist, in words",[4]; i.p.,potently antagonized
same,"ID50 (mg/kg) against [D-Ala2, Glu4]deltorphin","[4]; i.p. pretreatment -20 min, A90 i.c.v. agonist 20 nmol",3.4 mg/kg
same,ID50 (mg/kg) against DPDPE,"delta-1 (DPDPE); i.p. pretreatment -20 min, A90 i.c.v. agonist 30 nmol",15.3 mg/kg
same,"antagonism of delta-1 agonist DPDPE, in words","delta-1 (DPDPE); i.p., compared with delta-2",much less potent
same,ID50 (mg/kg) against DAMGO,"mu (DAMGO); i.p. pretreatment -20 min, A90 i.c.v. agonist 0.1 nmol",28.9 mg/kg
same,"antagonism of mu agonist DAMGO, in words","mu (DAMGO); i.p., compared with delta-2",much less potent
same,"ID50 (mg/kg) against U69,593","kappa (U69,593); i.p. pretreatment -20 min, A90 i.c.v. agonist 60 nmol, tail-flick",>60 mg/kg
same,"effect on antinociception of kappa agonist U69,593, in words","kappa (U69,593); i.p., doses of up to 60 mg/kg",did not affect
same,Ki,δ receptors,2.2 ± 0.16 nM
same,Ki,κ receptors,20 ± 1.04 nM
same,overt signs of toxicity,mice,did not display any overt signs of toxicity
same,vertical jumps precipitated in morphine pretreated mice,"morphine pretreated mice; 10 mg/kg i.p., 4 hr after morphine 100 mg/kg, vs naloxone 10 mg/kg i.p., p<0.001",significantly less vertical jumps than naloxone injection
same,attenuation of naloxone precipitated withdrawal (jumps),"morphine pretreated mice; coadministration 6d 10 mg/kg i.p. + naloxone 10 mg/kg i.p., p<0.05",significantly less jumps than naloxone alone; also recorded: attenuated opioid withdrawal
Oc1ccc2c3c1O[C@H]1c4[nH]c5ccccc5c4C[C@@]4(O)[C@@H](C2)N(CC2CC2)CC[C@]314 [naltrindole],Ki,δ receptors,0.41 ± 0.09 nM
same,Ki,κ receptors,35.8 ± 4 nM
same,antagonist activity DPDPE (δ) Ke,[5],0.49 nM
same,agonist activity MVD % max resp,mouse vas deferens (MVD) [6],16%
same,antagonist activity PL-017 (μ) Ke,[7],43 nM
"CN1CC[C@]23c4c5ccc(O)c4O[C@H]2[C@@H](O)C=C[C@H]3[C@H]1C5 [morphine, reference compound]",A50 tail-flick i.c.v.,"male ICR mice [2]; 55° C. tail-flick, mice",2.94 nmol and 1.7 nmol
same,A50 tail-flick i.p.,"male ICR mice [2]; 55° C. tail-flick, i.p., mice",8.0 mg/kg
same,"agonist character in tail-flick, i.c.v.",male ICR mice [2]; 55° C. tail-flick,full agonist effect
same,Repeated Injections A50 (95% C.I.) i.c.v.,male ICR mice [3],0.05 nmol (0.03-0.08
same,Control A50 (95% C.I.) i.c.v.,male ICR mice [3],0.004 nmol
same,Control A50 (95% C.I.) i.c.v.,male ICR mice [3]; listed as Morphine,0.004 nmol (0.003-0.006
same,Repeated Injections A50 (95% C.I.) i.p.,male ICR mice [3],4.78 mg/kg (3.7-6.2
same,Control A50 (95% C.I.) i.p.,male ICR mice [3],2.2 mg/kg (1.8-2.7
